Reference: ChEMBL document CHEMBL1777811, “Actin depolymerizing effect of trisoxazole-containing macrolides” (2011)
Activity calls are given as the source filed them. No cut-off for these calls is given here.

Experiments:
Salmonella typhimurium = assay: Antibacterial activity against Salmonella Typhimurium ATCC 14028 at 100 ug/ml after 24 hrs by twofold serial dilution method; type: functional, organism-based; settings: Salmonella enterica subsp. enterica serovar Typhimurium
Trichophyton rubrum = assay: Antifungal activity against Trichophyton rubrum IFO 9185 after 48 to72 hrs by twofold serial dilution method; type: functional
Candida albicans = assay: Antifungal activity against Candida albicans ATCC 10231 after 48 to72 hrs by twofold serial dilution method; type: functional
Staphylococcus aureus [1] = assay: Antibacterial activity against Staphylococcus aureus ATCC 6538p at 100 ug/ml after 24 hrs by twofold serial dilution method; type: functional, organism-based
Staphylococcus aureus [2] = assay: Antibacterial activity against Staphylococcus aureus IFO 12708 at 100 ug/ml after 24 hrs by twofold serial dilution method; type: functional, organism-based
Escherichia coli = assay: Antibacterial activity against Escherichia coli ATCC 25922 at 100 ug/ml after 24 hrs by twofold serial dilution method; type: functional, organism-based
[3] = test system: Trichophyton mentagrophytes; assay: Antifungal activity against Trichophyton mentagrophytes IFO 40996 after 48 to72 hrs by twofold serial dilution method; type: functional
[4] = Induction of depolymerization of F-actin at 1.82 uM by fluorimetry relative to control
Aspergillus fumigatus = assay: Antifungal activity against Aspergillus fumigatus HIC 6094 after 48 to72 hrs by twofold serial dilution method; type: functional
[5] = Induction of depolymerization of F-actin by fluorimetry
Bacillus subtilis = assay: Antibacterial activity against Bacillus subtilis ATCC 6633 at 100 ug/ml after 24 hrs by twofold serial dilution method; type: functional, organism-based
Proteus vulgaris = assay: Antibacterial activity against Proteus vulgaris ATCC 3851 at 100 ug/ml after 24 hrs by twofold serial dilution method; type: functional, organism-based
[6] = Induction of depolymerization of F-actin at 112 uM by fluorimetry relative to control
[7] = Induction of depolymerization of F-actin at 7.28 uM by fluorimetry relative to control
[8] = Induction of depolymerization of F-actin at 15 to 120 uM by fluorimetry relative to control
[9] = Induction of depolymerization of F-actin at 14 to 114 uM by fluorimetry relative to control

In the case of COC(CC1OC(=O)CC(O)C/C=C\C(=O)C(C)C(OC)c2coc(n2)-c2coc(n2)-c2coc(n2)/C=C\CCC1C)C(C)CCC(=O)C(C)C(C/C=C/N(C)C=O)OC (stereo unspecified), the Activity (Salmonella typhimurium) is reported as “inactive”, the MIC (Trichophyton rubrum) is reported as 7.27 µM and the MIC (Candida albicans) is reported as 0.91 µM. The Activity (Staphylococcus aureus [1]) was “inactive”, the Activity (Staphylococcus aureus [2]) was “inactive” and the Activity (Escherichia coli) was “inactive”. It also gave an MIC [3] of 14.6 µM, an Activity [4] of over 90% and an MIC (Aspergillus fumigatus) of 14.6 µM. The Activity [5] was “Dose-dependent effect”, the Activity (Bacillus subtilis) was “inactive” and the Activity (Proteus vulgaris) was “inactive”.
In the case of COC(=O)c1coc(/C=C/CCC(C)C(CC(OC)C(C)CCC(=O)C(C)C(C/C=C/N(C)C=O)OC)OC(=O)CC(O)C/C=C/C(=O)C(C)C(OC)c2coc(C(N)=O)n2)n1 (stereo unspecified) [HALISHIGAMIDE D], the Activity (Salmonella typhimurium) is reported as “inactive”, the MIC (Trichophyton rubrum) is reported as over 100 µg/mL and the MIC (Candida albicans) is reported as over 100 µg/mL. The Activity (Staphylococcus aureus [1]) was “inactive”, the Activity (Staphylococcus aureus [2]) was “inactive” and the Activity (Escherichia coli) was “inactive”. It also gave an MIC [3] of over 100 µg/mL, an MIC (Aspergillus fumigatus) of over 100 µg/mL and an Activity [6] of 40%. The Activity (Bacillus subtilis) was “inactive” and the Activity (Proteus vulgaris) was “inactive”.
With COC(CC1OC(=O)CC(O)C/C=C/C(=O)C(C)C(OC)c2coc(n2)-c2coc(n2)-c2coc(n2)/C=C/CCC1C)C(C)CCC(=O)C(C)C(C/C=C/N(C)C=O)OC (stereo unspecified) [HALICHONDRAMIDE] the Activity (Salmonella typhimurium) was “inactive”, the MIC (Trichophyton rubrum) was 0.48 µM and the Activity [7] was over 90%. For the same compound, the MIC (Candida albicans) was 0.23 µM, the Activity (Staphylococcus aureus [1]) was “inactive” and the Activity (Staphylococcus aureus [2]) was “inactive”. The Activity (Escherichia coli) was “inactive”, the MIC [3] was 0.91 µM and the MIC (Aspergillus fumigatus) was 0.45 µM. For the same compound, the Activity [5] was “Dose-dependent effect”, the Activity (Bacillus subtilis) was “inactive” and the Activity (Proteus vulgaris) was “inactive”.
For COC(CC1OC(=O)CC(O)/C=C/CC(=O)C(C)C(OC)c2coc(n2)-c2coc(n2)-c2coc(n2)/C=C/CCC1C)C(C)CCC(=O)C(C)C(C/C=C/N(C)C=O)OC (stereo unspecified) [NEOHALICHONDRAMIDE], the Activity (Salmonella typhimurium) was “inactive”, the MIC (Trichophyton rubrum) was over 100 µg/mL and the MIC (Candida albicans) was over 100 µg/mL. For the same compound, the Activity (Staphylococcus aureus [1]) was “inactive”, the Activity (Staphylococcus aureus [2]) was “inactive” and the Activity (Escherichia coli) was “inactive”. The MIC [3] was over 100 µg/mL, the MIC (Aspergillus fumigatus) was over 100 µg/mL and the Activity [8] was “inactive”. For the same compound, the Activity (Bacillus subtilis) was “inactive” and the Activity (Proteus vulgaris) was “inactive”.
With COC(CC1OC(=O)CC(O)CC(O)CC(=O)C(C)C(OC)c2coc(n2)-c2coc(n2)-c2coc(n2)/C=C/CCC1C)C(C)CCC(=O)C(C)C(C/C=C/N(C)C=O)OC (stereo unspecified) [JASPISAMIDE A] the Activity (Salmonella typhimurium) was “inactive”, the MIC (Trichophyton rubrum) was over 100 µg/mL and the MIC (Candida albicans) was over 100 µg/mL. For the same compound, the Activity (Staphylococcus aureus [1]) was “inactive”, the Activity (Staphylococcus aureus [2]) was “inactive” and the Activity (Escherichia coli) was “inactive”. For the same compound, the MIC [3] was over 100 µg/mL, the MIC (Aspergillus fumigatus) was over 100 µg/mL and the Activity [9] was “inactive”. For the same compound, the Activity (Bacillus subtilis) was “inactive” and the Activity (Proteus vulgaris) was “inactive”.
C[C@@H]1[C@H](O)[C@@H](C)/C=C/C=C/C=C/C=C/C=C/C=C/C=C/[C@H](O[C@@H]2O[C@H](C)[C@@H](O)[C@H](N)[C@@H]2O)C[C@@H]2O[C@](O)(C[C@@H](O)C[C@@H](O)[C@H](O)CC[C@@H](O)C[C@@H](O)CC(=O)O[C@H]1C)C[C@H](O)[C@H]2C(=O)O [AMPHOTERICIN B] showed an MIC (Trichophyton rubrum) of 0.84 µM, an MIC (Candida albicans) of 0.22 µM and an MIC [3] of 0.84 µM. The MIC (Aspergillus fumigatus) was 0.84 µM.
